The series is described as follows: in vitro permeation test, Gummer permeation vertical cells. The format is in vitro ADME, mice. As to conditions: for ciclopirox permeated: 75.0 μL of composition of Example 4 on hairless mice skin, individual experiments test 1-6. As for the experimental part:
An in vitro permeation test was performed by applying the film forming solution according to the Example 4 to excised hairless mice skin, obtained from dorsal or abdominal skin of male hairless mice (strain MF1-hr-hr/OIa, Nossan srl, Correzzana, Milan, Italy) aged 7-10 weeks. Portions of the skin (ca 9 cm^2), after removal of adhering fat and subcutaneous tissues, were placed as a barrier between the two compartment of Gummer permeation vertical cells (Gummer, C. L. et al. The skin penetration cell: design update. Int. J. Pharm. 1987, 40, 101-104). The receiving phase was introduced into the lower compartment and 75.0 μL of the composition according to the Example 4 were regularly distributed on the exposed skin surface. At predetermined time intervals (1, 2, 3, 4 and 5 hours) 5.0 mL of the receiving solution were collected for analysis and immediately replaced by an equal volume of fresh buffer. The experiment was replicated 6 times.

These results are taken from patent US20100062083A1, “DERMAL FILM-FORMING LIQUID FORMULATIONS FOR DRUG RELEASE TO SKIN” (POLICHEM S.A., priority 2007, published 2010).

Several values for one entry are separate records, joined by “and”; a condition that tells them apart may be missing. Equal values may be shown once.

Take `Cc1cc(C2CCCCC2)n(O)c(=O)c1` [ciclopirox]: the “permeation through mice skin, conclusion” value is “able to permeate the mice skin”. The ciclopirox permeated (h 1) was 0.001548 mg/cm^2 and 0.002964 mg/cm^2 and 0.001542 mg/cm^2 and 0.001617 mg/cm^2 and 0.00487 mg/cm^2 and 0.02038 mg/cm^2. For the same compound, for the setting “h 2”, the ciclopirox permeated is 0.01134 mg/cm^2 and 0.05066 mg/cm^2 and 0.01241 mg/cm^2 and 0.0445 mg/cm^2 and 0.04696 mg/cm^2 and 0.1182 mg/cm^2. The ciclopirox permeated (h 3) is 0.05601 mg/cm^2 and 0.102 mg/cm^2 and 0.04902 mg/cm^2 and 0.1745 mg/cm^2 and 0.2725 mg/cm^2 and 0.4084 mg/cm^2. In addition, the ciclopirox permeated (h 4) is 0.1146 mg/cm^2 and 0.1226 mg/cm^2 and 0.08552 mg/cm^2 and 0.2757 mg/cm^2 and 0.5273 mg/cm^2 and 0.7623 mg/cm^2. Also, the ciclopirox permeated (h 5) is 0.1721 mg/cm^2 and 0.1401 mg/cm^2 and 0.1517 mg/cm^2 and 0.328 mg/cm^2 and 0.7212 mg/cm^2 and 1.025 mg/cm^2.
